Measured values published in patent US20150038707A1, “PROCESS FOR MAKING CGRP RECEPTOR ANTAGONISTS” (Merck Sharp & Dohme Corp., priority 2012, published 2015).
Where “and” joins values, the source holds several entries; their conditions need not be identical. Equal values may be shown once.

Experiments:
Ae. aegypti mosquitoes = assay: Compound residual life: spatial repellency (Example 9); assay type: in vivo
Method: (§1) The four compounds of formula I described in Example 2 were tested for spatial repellency (directed movement away from the chemical source without the insect making physical contact with the treated surface) at low doses on female Aedes aegypti (Thailand strain) mosquitoes. The spatial repellency response was determined by use of the spatial repellency assay disclosed by Grieco et al. in “A New Classification System for the Actions of IRS Chemicals Traditionally Used for Malaria Control” in Plos One, Issue 8 (2007) (available at www.plosone.org) which is incorporated herein by reference for all relevant and consistent purposes. The assay used was a cylindrical assembly that included a treatment chamber at one end and a control chamber at the other end. The treatment chamber included a netting strip (nylon organdy) that was treated with the insecticide of interest at the relevant dose. The treatment chamber and control chamber were connected by a clear cylinder and were separated from the clear cylinder by butterfly valves. Twenty (20) mosquitoes were introduced into the clear central chamber and the butterfly valves were opened after 30 seconds. After 10 minutes, the valves were closed and the number of mosquitoes in each chamber was counted.
The spatial repellency assay of Example 3 was used to determine the residual life of compound 1405 on Ae. aegypti mosquitoes. Compound 1405 (neat, suspended in acetone) was applied by pipette to the netting material and the netting material was maintained at room temperature. The assay was performed at 0, 24 and 48 hours.
Nets were treated and tested at times 0 hour, 24 hour and 48 hour. The nets were held at room temperature between tests. The spatial activity index (“SAI” which varies from −1 to 1 with zero (0) indicating no response) and spatial repellency (SR) were determined. SAI is the measure of the proportion of females in the control chamber over the treated chamber after correcting for the proportion of females in the control chamber.

[1] = test system: female Aedes aegypti (Thailand strain) mosquitoes; assay: Spatial repellency assay on mosquitoes (Example 3); assay type: in vivo; conditions: netting treated at 0.0025-2.5 nmol/cm^2
Method: as §1
The compositions were applied to the net strips by the same methods and at the same concentrations as described in Example 2 above. […]

mosquitoes (Ae. aegypti) = assay: Compound residual life: contact irritancy (Example 10); assay type: in vivo; conditions: for Number escaping (mean +/- SE), treated: 10 mosquitoes per run, 6 runs per net sample
Method: (§2) Four compounds of formula (I) were tested for contact irritancy (i.e., movement away from the source after physical contact) at low doses on female Aedes aegypti (Thailand strain) mosquitoes. The contact irritant response was determined by use of the contact irritant assay disclosed by Grieco et al. in “A New Classification System for the Actions of IRS Chemicals Traditionally Used for Malaria Control,” Plos One, Issue 8 (2007) (available at www.plosone.org). The assay used was a cylindrical assembly that included a metal treatment end to which 10 mosquitoes were introduced and a clear receiving chamber. The treatment end included a netting strip (nylon organdy) that was treated with the insecticide of interest at the relevant dose. A butterfly valve separated the treatment end from the remainder of the assembly.
Contact irritancy tests (blind testing) were performed for several samples of compounds 1405 and 1406 at 0 weeks, 2 weeks, 4 weeks, 8 weeks and 12 weeks to determine the residual contact irritancy of the compounds on mosquitoes (Ae. aegypti). Between testing, the nets were hung in the lab and held at a temperature of 27-29° C. and 56-67% relative humidity. Each run was performed 6 times for each sample with 10 mosquitoes used in each run (60 mosquitoes total).

[2] = test system: female Aedes aegypti (Thailand strain) mosquitoes; assay: Contact irritancy assay on mosquitoes (Example 2); assay type: in vivo; conditions: netting treated at 0.0025-2.5 nmol/cm^2; 10 minutes
Method: as §2
(§3) Each composition was applied to the netting strip at a varied dose via a 1.5 ml acetone solution. Four (4) treatment concentrations were used—0.0025 nmol/cm^2, 0.025 nmol/cm^2, 0.25 nmol/cm^2 and 2.5 nmol/cm^2. Netting was allowed to dry for 15 minutes prior to placement in the cylinder. Control assays were performed with netting treated with acetone only.
(§4) For each run, 10 mosquitoes were transferred into the treatment end of the assembly and, after 30 seconds, the butterfly valve was opened. The valve was closed after 10 minutes and the number of mosquitoes in the clear end (i.e., the number of escaped mosquitoes) was tested.

[3] = test system: Ae. Aegypti, That strain (pyrethroid tolerant); assay: Contact irritancy on pyrethroid tolerant mosquitoes (Example 5); assay type: in vivo
Method: as §2, §3, §4
The contact irritancy protocol of Example 2 was used to determine contact irritancy against mosquitoes (Ae. Aegypti) that had acquired metabolic resistance against pyrethroids. Alphacypermethrin and transfluthrin were also tested. Three mosquito strains were tested—Houston which is pyrethroid susceptible, That which is pyrethroid tolerant and Isla Mujer which is metabolically pyrethroid resistant.

Susceptible An. Gambiae = assay: Bottle toxicity assay (Example 8), susceptible mosquitoes; assay type: in vivo, Anopheles gambiae
Method: Several compounds were tested to determine their toxic effect on knockdown resistant Anopheles gambiae mosquitoes and susceptible mosquitoes. Acetone and different amounts of pesticides were added to 250 ml bottles. In one bottle, only acetone was added as a control. The bottles were rotated in all directions while uncapped until all acetone was evaporated and the insecticide was coated onto the inside surfaces of the bottle. A number of knockdown resistant Anopheles gambiae mosquitoes were added to the bottle. The number of dead mosquitoes was recorded at 1 hour and 24 hours.

[4] = Dose 2.5, Time 0 hr after net treatment
[5] = Dose 2.5, Time 24 hr after net treatment
[6] = Dose 25, Time 0 hr after net treatment
[7] = Dose 25, Time 24 hr after net treatment
[8] = Dose 25, Time 48 hr after net treatment
[9] = Dose 0.025 μg/bottle, Strain Tested F122, Time 1 hour
[10] = Dose 0.025 μg/bottle, Strain Tested F122, Time 24 hours
[11] = Dose 0.025 μg/bottle, Strain Tested F123, Time 1 hour
[12] = Dose 0.025 μg/bottle, Strain Tested F123, Time 24 hours
[13] = Dose 0.25 μg/bottle, Strain Tested F122, Time 1 hour
[14] = Dose 0.25 μg/bottle, Strain Tested F122, Time 24 hours
[15] = Dose 0.25 μg/bottle, Strain Tested F123, Time 1 hour
[16] = Dose 0.25 μg/bottle, Strain Tested F123, Time 24 hours
[17] = Dose 2.5 μg/bottle, Strain Tested F122, Time 1 hour
[18] = Dose 2.5 μg/bottle, Strain Tested F122, Time 24 hours
[19] = Dose 2.5 μg/bottle, Strain Tested F123, Time 1 hour
[20] = Dose 2.5 μg/bottle, Strain Tested F123, Time 24 hours

| Compound | Percent escaping (mean ± SE) (mosquitoes (Ae. aegypti); Time 0 week) | Percent escaping (mean ± SE) (mosquitoes (Ae. aegypti); Time 2 week) | Number escaping (mean +/- SE), treated (mosquitoes (Ae. aegypti); Time 2 week) | contact irritancy (FIG. 1) [2] | contact irritancy, tolerant strain (FIG. 4) [3] | Susceptible An. Gambiae (% dead (SE)) (Susceptible An. Gambiae; [9]) | Susceptible An. Gambiae (% dead (SE)) (Susceptible An. Gambiae; [10]) | Susceptible An. Gambiae (% dead (SE)) (Susceptible An. Gambiae; [11]) | Susceptible An. Gambiae (% dead (SE)) (Susceptible An. Gambiae; [12]) | Susceptible An. Gambiae (% dead (SE)) (Susceptible An. Gambiae; [13]) | Susceptible An. Gambiae (% dead (SE)) (Susceptible An. Gambiae; [14]) | Susceptible An. Gambiae (% dead (SE)) (Susceptible An. Gambiae; [15]) | Susceptible An. Gambiae (% dead (SE)) (Susceptible An. Gambiae; [16]) | Susceptible An. Gambiae (% dead (SE)) (Susceptible An. Gambiae; [17]) | Susceptible An. Gambiae (% dead (SE)) (Susceptible An. Gambiae; [18]) | Susceptible An. Gambiae (% dead (SE)) (Susceptible An. Gambiae; [19]) | Susceptible An. Gambiae (% dead (SE)) (Susceptible An. Gambiae; [20]) | other results |
| --- | --- | --- | --- | --- | --- | --- | --- | --- | --- | --- | --- | --- | --- | --- | --- | --- | --- | --- |
| CC1(C)C(C=C(Cl)C(F)(F)F)C1C(=O)OCc1ccc(F)c(C(F)(F)F)c1F (stereo not drawn) [Compound 1405] | 90 ± 5% and 80 ± 5% and 85 ± 4% and 88 ± 5% | 47 ± 6% and 42 ± 7% and 47 ± 3% and 47 ± 4% | 1.7 ± 0.6 and 2.2 ± 0.7 and 1.7 ± 0.4 | showed contact irritancy at relatively low doses | contact irritants for tolerant strains | 100% | 100% | 100% | 100% | 100% | 100% | 100% | 100% | 100% | 100% | 100% | 100% | SAI (SE) (spatial activity index, -1 to 1) (Ae. aegypti mosquitoes; [4]): 0.5(0.1); SR (spatial repellency) (Ae. aegypti mosquitoes; [4]): 21.5; SAI (SE) (spatial activity index, -1 to 1) (Ae. aegypti mosquitoes; [5]): 0.3(0.1); SR (spatial repellency) (Ae. aegypti mosquitoes; [5]): 18; SAI (SE) (spatial activity index, -1 to 1) (Ae. aegypti mosquitoes; [6]): 0.3(0.1); SR (spatial repellency) (Ae. aegypti mosquitoes; [6]): 21.5; SAI (SE) (spatial activity index, -1 to 1) (Ae. aegypti mosquitoes; [7]): 0.5(0.1); SR (spatial repellency) (Ae. aegypti mosquitoes; [7]): 22.5; SAI (SE) (spatial activity index, -1 to 1) (Ae. aegypti mosquitoes; [8]): 0.4(0.1); SR (spatial repellency) (Ae. aegypti mosquitoes; [8]): 22.5; spatial repellency, dose compared with DDT (FIG. 2) [1]: showed repellency at a lower dose than DDT; Number escaping (mean +/- SE), treated (mosquitoes (Ae. aegypti); Time 8 week): 1.8 ± 0.5 and 2.2 ± 0.5 and 1.8 ± 0.9 and 1.5 ± 0.6; Susceptible An. Gambiae (% dead (SE)) (Susceptible An. Gambiae; Dose 0.00025 μg/bottle, Strain Tested F123, Time 1 hour): 100%; Susceptible An. Gambiae (% dead (SE)) (Susceptible An. Gambiae; Dose 0.00025 μg/bottle, Strain Tested F123, Time 24 hours): 87%; Susceptible An. Gambiae (% dead (SE)) (Susceptible An. Gambiae; Dose 0.0025 μg/bottle, Strain Tested F122, Time 1 hour): 100%; Susceptible An. Gambiae (% dead (SE)) (Susceptible An. Gambiae; Dose 0.0025 μg/bottle, Strain Tested F122, Time 24 hours): 95%; Susceptible An. Gambiae (% dead (SE)) (Susceptible An. Gambiae; Dose 0.0025 μg/bottle, Strain Tested F123, Time 1 hour): 100%; Susceptible An. Gambiae (% dead (SE)) (Susceptible An. Gambiae; Dose 0.0025 μg/bottle, Strain Tested F123, Time 24 hours): 100%; Susceptible An. Gambiae (% dead (SE)) (Susceptible An. Gambiae; Dose 25 μg/bottle, Strain Tested F123, Time 1 hour): 100%; Susceptible An. Gambiae (% dead (SE)) (Susceptible An. Gambiae; Dose 25 μg/bottle, Strain Tested F123, Time 24 hours): 100% |
| CC1(C)C(C=C(Cl)Cl)C1C(=O)OCc1ccc(F)c(C(F)(F)F)c1F (stereo not drawn) [Compound 1406] | 80 ± 2% and 87 ± 4% and 87 ± 7% and 87 ± 10% | 57 ± 4% and 63 ± 5% and 58 ± 7% and 62 ± 8% | 2.5 ± 0.8 and 2.7 ± 0.3 and 2.2 ± 0.2 | showed contact irritancy at relatively low doses | contact irritants for tolerant strains | 100% | 100% | 100% | 100% | 100% | 100% | 100% | 100% | 100% | 100% | 100% | 100% | residual contact irritant activity (in words) (mosquitoes (Ae. aegypti); 12 week test period, nets held at 27-29° C.): the most residual with the highest level of activity out to 12 weeks; Number escaping (mean +/- SE), treated (mosquitoes (Ae. aegypti); Time 0 week): 3.8 ± 0.5 and 3.2 ± 0.5 and 3.2 ± 1.2 and 4.0 ± 1.0; Percent escaping (mean ± SE) (mosquitoes (Ae. aegypti); Time 4 week): 50 ± 10% and 47 ± 4% and 45 ± 4% and 35 ± 8%; Number escaping (mean +/- SE), treated (mosquitoes (Ae. aegypti); Time 4 week): 2.0 ± 0.4 and 2.3 ± 0.5 and 2.5 ± 0.4 and 2.5 ± 0.8; Percent escaping (mean ± SE) (mosquitoes (Ae. aegypti); Time 8 week): 40 ± 10% and 37 ± 2% and 27 ± 7% and 28 ± 9%; Percent escaping (mean ± SE) (mosquitoes (Ae. aegypti); Time 12 week): 37 ± 4% and 31 ± 4% and 22 ± 6% and 19 ± 5% |
